≈ marks a conversion by molar mass, not a printed value.
What was measured:
Assay type in all cases: functional
[1] = test system: Prevotella salivae; test: Antimicrobial activity in Prevotella salivae by CLSI agar dilution method; conditions: Segatella salivae
[2] = test system: Fusobacterium nucleatum; test: Antimicrobial activity in Fusobacterium nucleatum by CLSI agar dilution method
[3] = test system: Finegoldia magna; test: Antimicrobial activity in Finegoldia magna by CLSI agar dilution method
[4] = test system: Parabacteroides distasonis; test: Antimicrobial activity in Bacteroides distasonis by CLSI agar dilution method
[5] = test system: Bacteroides thetaiotaomicron; test: Antimicrobial activity in Bacteroides thetaiotaomicron by CLSI agar dilution method
[6] = test system: Peptoniphilus asaccharolyticus; test: Antimicrobial activity in Peptoniphilus asaccharolyticus by CLSI agar dilution method
[7] = test system: Hoylesella oralis; test: Antimicrobial activity in Prevotella oralis group by CLSI agar dilution method
[8] = test system: Prevotella veroralis; test: Antimicrobial activity in Prevotella veroralis by CLSI agar dilution method
[9] = test system: Fusobacterium necrophorum; test: Antimicrobial activity in Fusobacterium necrophorum by CLSI agar dilution method
[10] = test system: Bacteroides stercoris; test: Antimicrobial activity in Bacteroides stercoris by CLSI agar dilution method
[11] = test system: Prevotella corporis; test: Antimicrobial activity in Prevotella corporis by CLSI agar dilution method
[12] = test system: Bacteroides ovatus; test: Antimicrobial activity in Bacteroides ovatus by CLSI agar dilution method
[13] = test system: Parvimonas micra; test: Antimicrobial activity in Micromonas micros by CLSI agar dilution method
[14] = test system: Clostridioides difficile; test: Antimicrobial activity in Clostridium difficile by CLSI agar dilution method
[15] = test system: Prevotella nigrescens; test: Antimicrobial activity in Prevotella nigrescens by CLSI agar dilution method
[16] = test system: Phocaeicola vulgatus; test: Antimicrobial activity in Bacteroides vulgatus by CLSI agar dilution method
[17] = test system: Paeniclostridium sordellii; test: Antimicrobial activity in Clostridium sordellii by CLSI agar dilution method; conditions: Paraclostridium sordellii
[18] = test system: Anaerococcus tetradius; test: Antimicrobial activity in Anaerococcus tetradius by CLSI agar dilution method
[19] = test system: Prevotella disiens; test: Antimicrobial activity in Prevotella disiens by CLSI agar dilution method
[20] = test system: Prevotella denticola; test: Antimicrobial activity in Prevotella denticola by CLSI agar dilution method
[21] = test system: Actinomyces; test: Antimicrobial activity in Actinomyces by CLSI agar dilution method
[22] = test system: Paraclostridium bifermentans; test: Antimicrobial activity in Clostridium bifermentans by CLSI agar dilution method
[23] = test system: Hoylesella loescheii; test: Antimicrobial activity in Prevotella loescheii by CLSI agar dilution method
[24] = test system: Bacteroides fragilis; test: Antimicrobial activity in Bacteroides fragilis by CLSI agar dilution method
[25] = test system: Prevotella sp.; test: Antimicrobial activity in Prevotella sp.by CLSI agar dilution method
[26] = test system: Fusobacterium mortiferum; test: Antimicrobial activity in Fusobacterium mortiferum by CLSI agar dilution method
[27] = test system: [Clostridium] innocuum; test: Antimicrobial activity in Clostridium innocuum by CLSI agar dilution method
[28] = test system: Lactobacillus; test: Antimicrobial activity in Lactobacillus by CLSI agar dilution method
[29] = test system: Clostridium butyricum; test: Antimicrobial activity in Clostridium butyricum by CLSI agar dilution method
[30] = test system: Eggerthella lenta; test: Antimicrobial activity in Eggerthella lenta by CLSI agar dilution method
[31] = test system: Prevotella intermedia; test: Antimicrobial activity in Prevotella intermedia by CLSI agar dilution method
[32] = test system: Prevotella buccae; test: Antimicrobial activity in Prevotella buccae by CLSI agar dilution method; conditions: Segatella buccae
[33] = test system: Clostridium cadaveris; test: Antimicrobial activity in Clostridium cadaveris by CLSI agar dilution method
[34] = test system: Fusobacterium varium; test: Antimicrobial activity in Fusobacterium varium by CLSI agar dilution method
[35] = test system: Bacteroides uniformis; test: Antimicrobial activity in Bacteroides uniformis by CLSI agar dilution method
[36] = test system: Tissierella praeacuta; test: Antimicrobial activity in Clostridium hastiforme by CLSI agar dilution method
[37] = test system: Thomasclavelia ramosa; test: Antimicrobial activity in Clostridium ramosum by CLSI agar dilution method
[38] = test system: Prevotella melaninogenica; test: Antimicrobial activity in Prevotella melaninogenica by CLSI agar dilution method
[39] = test system: Porphyromonas gingivalis; test: Antimicrobial activity in Porphyromonas gingivalis by CLSI agar dilution method
[40] = test system: Enterocloster clostridioformis; test: Antimicrobial activity in Clostridium clostridioforme by CLSI agar dilution method
[41] = test system: Clostridium perfringens; test: Antimicrobial activity in Clostridium perfringens by CLSI agar dilution method
[42] = test system: Clostridium tertium; test: Antimicrobial activity in Clostridium tertium by CLSI agar dilution method
[43] = test system: Peptostreptococcus anaerobius; test: Antimicrobial activity in Peptostreptococcus anaerobius by CLSI agar dilution method
[44] = test system: Clostridium sp.; test: Antimicrobial activity in Clostridium sp. by CLSI agar dilution method
[45] = test system: Bifidobacterium; test: Antimicrobial activity in Bifidobacterium by CLSI agar dilution method
[46] = test system: Prevotella bergensis; test: Antimicrobial activity in Prevotella bergensis by CLSI agar dilution method; conditions: Hallella bergensis
[47] = test system: Anaerococcus prevotii; test: Antimicrobial activity in Anaerococcus prevotii by CLSI agar dilution method
[48] = test system: Prevotella bivia; test: Antimicrobial activity in Prevotella bivia by CLSI agar dilution method

SMILES: CCC[C@@H]1C[C@@H](C(=O)N[C@@H]([C@H]2O[C@H](SC)[C@H](O)[C@@H](O)[C@H]2O)[C@H](C)Cl)N(C)C1 [CLINDAMYCIN]
- MIC [1]: ≤ 0.016 µg/mL
- MIC50 [2]: 0.06 µg/mL (≈ 0.141 µM)
- MIC90 [2]: 0.125 µg/mL (≈ 0.294 µM)
- MIC50 [3]: 0.125 µg/mL (≈ 0.294 µM)
- MIC90 [3]: 2 µg/mL (≈ 4.71 µM)
- MIC50 [4]: 4 µg/mL (≈ 9.41 µM)
- MIC90 [4]: 16 µg/mL (≈ 37.6 µM)
- MIC50 [5]: 4 µg/mL (≈ 9.41 µM)
- MIC90 [5]: > 32 µg/mL
- MIC [6]: 0.06 µg/mL (≈ 0.141 µM)
- MIC50 [6]: 0.125 µg/mL (≈ 0.294 µM)
- MIC [7]: ≤ 0.016 µg/mL
- MIC [8]: ≤ 0.016 µg/mL
- MIC [9]: ≤ 0.016 µg/mL
- MIC50 [9]: 0.03 µg/mL (≈ 0.0706 µM)
- MIC [10]: > 4 µg/mL
- MIC50 [10]: 8 µg/mL (≈ 18.8 µM)
- MIC50 [11]: ≤ 0.016 µg/mL
- MIC50 [12]: 2 µg/mL (≈ 4.71 µM)
- MIC90 [12]: > 32 µg/mL
- MIC [13]: 0.125 µg/mL (≈ 0.294 µM)
- MIC50 [13]: 0.125 µg/mL (≈ 0.294 µM)
- MIC90 [13]: 0.25 µg/mL (≈ 0.588 µM)
- MIC50 [14]: 4 µg/mL (≈ 9.41 µM)
- MIC90 [14]: > 32 µg/mL
- MIC [15]: ≤ 0.016 µg/mL
- MIC50 [15]: ≤ 0.016 µg/mL
- MIC90 [15]: ≤ 0.016 µg/mL
- MIC50 [16]: 0.03 µg/mL (≈ 0.0706 µM)
- MIC90 [16]: 1 µg/mL (≈ 2.35 µM)
- MIC [17]: 0.25 µg/mL (≈ 0.588 µM)
- MIC50 [18]: 0.5 µg/mL (≈ 1.18 µM)
- MIC90 [18]: 1 µg/mL (≈ 2.35 µM)
- MIC [19]: ≤ 0.016 µg/mL
- MIC50 [19]: ≤ 0.016 µg/mL
- MIC [20]: ≤ 0.016 µg/mL
- MIC50 [20]: ≤ 0.016 µg/mL
- MIC90 [20]: 0.06 µg/mL (≈ 0.141 µM)
- MIC [21]: 0.03 µg/mL (≈ 0.0706 µM)
- MIC50 [21]: 0.125 µg/mL (≈ 0.294 µM)
- MIC [22]: 0.125 µg/mL (≈ 0.294 µM)
- MIC [23]: ≤ 0.016 µg/mL
- MIC50 [24]: 1 µg/mL (≈ 2.35 µM)
- MIC90 [24]: > 32 µg/mL
- MIC [25]: ≤ 0.016 µg/mL
- MIC50 [26]: 0.06 µg/mL (≈ 0.141 µM)
- MIC90 [26]: 0.125 µg/mL (≈ 0.294 µM)
- MIC [27]: 0.03 µg/mL (≈ 0.0706 µM)
- MIC50 [28]: 0.5 µg/mL (≈ 1.18 µM)
- MIC90 [28]: 4 µg/mL (≈ 9.41 µM)
- MIC [29]: 2 µg/mL (≈ 4.71 µM)
- MIC50 [30]: 0.25 µg/mL (≈ 0.588 µM)
- MIC90 [30]: 1 µg/mL (≈ 2.35 µM)
- MIC [31]: ≤ 0.016 µg/mL
- MIC50 [31]: ≤ 0.016 µg/mL
- MIC90 [31]: ≤ 0.016 µg/mL
- MIC [32]: ≤ 0.016 µg/mL
- MIC50 [32]: ≤ 0.016 µg/mL
- MIC90 [32]: ≤ 0.016 µg/mL
- MIC [33]: 0.06 µg/mL (≈ 0.141 µM)
- MIC50 [34]: 8 µg/mL (≈ 18.8 µM)
- MIC90 [34]: 32 µg/mL (≈ 75.3 µM)
- MIC [35]: > 1 µg/mL
- MIC50 [35]: 2 µg/mL (≈ 4.71 µM)
- MIC [36]: 0.06 µg/mL (≈ 0.141 µM)
- MIC [37]: 2 µg/mL (≈ 4.71 µM)
- MIC [38]: ≤ 0.016 µg/mL
- MIC50 [38]: ≤ 0.016 µg/mL
- MIC90 [38]: 0.06 µg/mL (≈ 0.141 µM)
- MIC [39]: ≤ 0.016 µg/mL
- MIC [40]: 0.03 µg/mL (≈ 0.0706 µM)
- MIC50 [41]: 0.5 µg/mL (≈ 1.18 µM)
- MIC90 [41]: 2 µg/mL (≈ 4.71 µM)
- MIC [42]: 8 µg/mL (≈ 18.8 µM)
- MIC50 [42]: 8 µg/mL (≈ 18.8 µM)
- MIC [43]: ≤ 0.016 µg/mL
- MIC50 [43]: ≤ 0.016 µg/mL
- MIC90 [43]: 0.25 µg/mL (≈ 0.588 µM)
- MIC50 [44]: 1 µg/mL (≈ 2.35 µM)
- MIC90 [44]: 16 µg/mL (≈ 37.6 µM)
- MIC50 [45]: 0.03 µg/mL (≈ 0.0706 µM)
- MIC90 [45]: > 32 µg/mL
- MIC [46]: ≤ 0.016 µg/mL
- MIC [47]: 0.125 µg/mL (≈ 0.294 µM)
- MIC50 [48]: ≤ 0.016 µg/mL
- MIC90 [48]: > 32 µg/mL

— ChEMBL document CHEMBL1649156, “Antianaerobic activity of sulopenem compared to six other agents” (2009)
